Results reported in patent publication US5085739A, “Separation of the propyl alcohols from water by azeotropic or extractive distillation” (priority 1991, dated 1992).
Where a name gives a salt, the structure may show the parent alone. Values belong to the compound of their own block, whether it stands above or below them.

Key:
[1] = vapor-liquid equilibrium still, n-propanol-water azeotrope with agent; settings: for Relative Volatility: n-propanol from water
Description: The data in Table 2, 3, 5, 6 and 7 were obtained in a vapor-liquid equilibrium still. In every case, the starting material was the propanol-water azeotrope. The relative volatilities are listed for each of the agents.

[2] = glass perforated plate rectification column, n-propanol from water; assay type: physicochemical
Method: A solution comprising 288 grams of n-propanol and 112 grams of water was placed in the stillpot of the perforated plate column. When refluxing began, an extractive agent comprising n-butyl acetate was pumped into the column at a rate of 15/min/ml. The temperature of the extractive agent as it entered the column was 85° C. After establishing the feed rate of the extractive agent, the heat input to the n-propanol-water in the stillpot was adjusted to give a total reflux rate of 40 ml/min. After two hours of operation, the overhead and bottoms samples of approximately two ml. were collected and analysed.
Two hundred grams of the n-propanol-water azeotrope and 85 grams of n-amyl formate as the azeotrope former were charged to the 7.3 theoretical plate column and refluxed at total reflux for four hours.

[3] = vapor-liquid equilibrium still, isopropanol-water azeotrope with agent; settings: for Relative Volatility: isopropanol from water, agent in vapor-liquid equilibrium still, water as overhead
Description: In every case, the starting material was the propanol-water azeotrope. The relative volatilities are listed for each of the agents.

[4] = glass perforated plate rectification column (7.3 theoretical plates), isopropanol from water; assay type: physicochemical
Method: A solution comprising 175 grams of isopropanol and 25 grams of water was placed in the stillpot of a 7.3 theoretical plate perforated plate column. […] The temperature of the extractive agent as it entered the column was 75° C. After establishing the feed rate of the extractive agent, the heat input to the isopropanol-water in the stillpot was adjusted to give a total reflux rate of 40 ml/min.
After two hours of operation, the overhead and bottoms samples of approximately two ml. were collected and analysed by gas chromatography.

[5] = extractive distn., water as overhead
[6] = butoxypropanol four hours, n-amyl acetate 14 hours

Compound: CC(O)c1ccccc1 (stereo not drawn) [alpha-Methyl benzyl alcohol]
Relative Volatility [1, 5]: 1.48

Relative Volatility ([2]; azeotropic mode, 4 hrs): 1.23 | Weight % Water, Bottoms ([2]; rectification column): 7.3 Weight % | Weight % n-Propanol, Bottoms ([2]; rectification column): 25.7 Weight % | Weight % Agent, Bottoms ([2]; rectification column, azeotropic): 67.0 Weight % | Weight % Agent, Bottoms ([2]; rectification column, azeotropic, listed as n-amyl formate): 67 Weight % | Weight % Water, Overhead ([2]; rectification column, overhead): 40.3 Weight % | Weight % n-Propanol, Overhead ([2]; rectification column, overhead): 29.9 Weight % | Weight % Agent, Overhead ([2]; rectification column, overhead, azeotropic): 29.8 Weight %
Compound: CCCCCOC=O [Amyl Formate]

Relative Volatility [3]: 1.39
Compound: CCCCOC(=O)CCC [Butyl butyrate]

Relative Volatility [1, 5]: 1.30
Compound: CC(C)CCCCCCCO [Isodecyl alcohol]

Compound: CCCCCCO [Hexyl alcohol]
Relative Volatility [1, 5]: 1.44 | Relative Volatility [3]: 1.32

Compound: O=[N+]([O-])c1ccccc1 [Nitrobenzene]
Relative Volatility [1, 5]: 1.21 | Relative Volatility [3]: 1.32

Compound: CC(C)COC(=O)C(C)C [Isobutyl isobutyrate]
Relative Volatility [3]: 1.61

Relative Volatility [3]: 1.30
Compound: CCCCCCC(C)O (centres unmarked) [2-Octanol]

Compound: CC(=O)C=C(C)C [Mesityl oxide]
Relative Volatility ([1]; azeotropic distn.): 1.2 | Relative Volatility [3]: 1.47

Compound: CCCOC(=O)CCC [Propyl butyrate]
Relative Volatility ([1]; azeotropic distn.): 3.6 | Relative Volatility [3]: 1.72 | liquid composition, isopropanol ([3]; refluxed six hours): 85.3% | liquid composition, water ([3]; refluxed six hours): 14.7% | vapor composition, isopropanol ([3]; refluxed six hours): 77.1% | vapor composition, water ([3]; refluxed six hours): 22.9%

Relative Volatility [3]: 1.29
Compound: CC(C)COCC(C)O (centres unmarked) [Propylene glycol isobutyl ether]

Compound: CCOCCOC(C)=O [Ethylene glycol ethyl ether acetate]
Relative Volatility [1, 5]: 1.37

Compound: COC(=O)c1ccccc1 [Methyl benzoate]
Relative Volatility [1, 5]: 1.70 | Relative Volatility [3]: 1.50

Compound: CC(=O)CC(C)C [4-Methyl-2-pentanone]
Relative Volatility ([4]; extractive mode, 2 hrs, 7.3 theoretical plates): 1.45 | Weight % Isopropanol, Bottoms ([4]; rectification column, bottoms): 82.3 Weight % | Weight % Water, Bottoms ([4]; rectification column, bottoms): 17.7 Weight % | Weight % Isopropanol, Overhead ([4]; rectification column, overhead): 23.2 Weight % | Weight % Water, Overhead ([4]; rectification column, overhead): 76.8 Weight % | Relative Volatility ([2]; extractive mode, 2 hrs): 1.45 | Relative Volatility ([1]; azeotropic distn.): 1.3 | Relative Volatility [3]: 1.36

Weight % Water, Bottoms ([2]; rectification column): 58.8 Weight % | Weight % n-Propanol, Bottoms ([2]; rectification column): 41.2 Weight % | Weight % Water, Overhead ([2]; rectification column, overhead): 26.1 Weight % | Weight % n-Propanol, Overhead ([2]; rectification column, overhead): 73.9 Weight %
Compound: CC(=O)OCC(C)C [Isobutyl acetate]

Compound: CCCOCC(C)O (centres unmarked) [Propoxypropanol]
Relative Volatility ([2]; extractive mode, 2 hrs): 1.21 | Weight % Water, Bottoms ([2]; rectification column): 30 Weight % | Weight % n-Propanol, Bottoms ([2]; rectification column): 70 Weight % | Weight % Water, Overhead ([2]; rectification column, overhead): 63.5 Weight % | Weight % n-Propanol, Overhead ([2]; rectification column, overhead): 36.5 Weight %

Compound: COc1ccccc1 [Anisole]
Relative Volatility [1, 5]: 2.0 | Relative Volatility [3]: 1.54

Relative Volatility [3]: 1.22
Compound: CCCCCC(=O)CC [3-Octanone]

Compound: Butoxypropanol
Weight % Water, Bottoms ([2]; rectification column): 15.9 Weight % | Weight % n-Propanol, Bottoms ([2]; rectification column): 84.1 Weight % | Weight % Water, Overhead ([2]; rectification column, overhead): 50.1 Weight % | Weight % n-Propanol, Overhead ([2]; rectification column, overhead): 49.9 Weight % | liquid composition, n-propanol [1, 6]: 77.2% | liquid composition, water [1, 6]: 22.8% | vapor composition, n-propanol [1, 6]: 60.5% | vapor composition, water [1, 6]: 39.5%

Relative Volatility ([1]; azeotropic distn.): 1.5
Compound: N#Cc1ccccc1 [Benzonitrile]

Relative Volatility [1, 5]: 1.3
Compound: CCOCCOCCOC(C)=O [Diethylene glycol ethyl ether acetate]

Compound: CC(C)CCO [3-Methyl-1-butanol]
Relative Volatility [3]: 1.54

Compound: CCCC(C)=O [2-Pentanone]
Relative Volatility [3]: 1.38

Compound: OCCO [Ethylene glycol]
Relative Volatility ([1]; extractive distn., * brings n-propanol out as overhead): 1.7
